According to patent US20230226092A1, “CANCER […] ON G[…]” (NuCana plc, priority 2015, published 2023):

Test system: advance progressive cancers that are refractory to, or have relapsed on, all conventional therapies
Assay: ProGem1 dose escalation clinical study: clinical response (RECIST 1.1, tumour markers)
Type: in vivo, human
Design: CA125 level / CA19.9 / CEA / CA125 / Tumour volume / CA 15.3 tumour marker / inhibin B: unit not given here
Description: The following data were generated in clinical studies of NUC-1031 in human patients with advance progressive cancers that are refractory to, or have relapsed on, all conventional therapies that have been used to date. The results clearly illustrate the ability of NUC-1031 to successfully treat refractory cancers.
Although the primary objectives of the dose escalation part of the study were to determine the Recommended Phase II Dose (RP2D) and safety profile, secondary objectives included determining the PK profile, however effective treatment of patients with a range of refractory cancers has also been observed as part of this study.
A total of 68 patients have been entered into this dose escalation study, of which 49 were evaluable for clinical response in that they have received at least 2 Cycles of NUC-1031 and were therefore eligible for a RECIST 1.1 assessment.
NUC-1031 was administered as a 5 to 30 minute intravenous slow bolus injection. • Schedule A: NUC-1031 was administered on days 1, 8, 15 of a 4 weekly Cycle. • Schedule B: NUC-1031 was administered on days 1, 5, 8, 12, 15, 19, of a 4 weekly Cycle.
Evaluable patients were patients that received ≥ 2 Cycles of NUC-1031 and were therefore eligible for a RECIST 1.1 assessment at the end of Cycle 2. Where the disease response duration, measured in months, is followed by a “+” this indicates ongoing disease control as of the latest cut-off date.

[1] = Patient 004, breast cancer, 500 mg/m^2 weekly
[2] = Patient 005, ovarian cancer, 500 mg/m^2 weekly
[3] = Patient 006, cholangiocarcinoma, 375 mg/m^2 twice weekly, then 500 mg/m^2 weekly
[4] = Patient 008, cancer of unknown primary, 375 mg/m^2 twice weekly
[5] = Patient 010, endometrial cancer
[6] = Patient 015, cancer of unknown primary, ongoing
[7] = Patient 021, fallopian tube cancer
[8] = Patient 025, mesothelioma, 725 mg/m^2 weekly
[9] = Patient 026, colorectal cancer, 725 mg/m^2 weekly
[10] = Patient 029, breast cancer, 725 mg/m^2 weekly
[11] = Patient 030, ovarian cancer, 725 mg/m^2 weekly
[12] = Patient 032, oesophageal cancer, 750 mg/m^2 weekly
[13] = Patient 033, cholangiocarcinoma, 750 mg/m^2 weekly

“gemcitabine-[phenyl-benzoxy-L-alaninyl)]-phosphate [NUC-1031]” was tested, and the Disease response duration [1] was 12 months, the “Response to RECIST” value [1] was “Stable Disease” and the “Remained stable with no further treatment” value (Patient 004, breast cancer, after Cycle 7) was 5 months. The Disease response duration [2] was 15 months, the “Response to RECIST” value [2] was “Stable Disease” and the “Time to relapse after stopping treatment” value (Patient 005, ovarian cancer, after 12 months of treatment) was 3 months. For the same substance, the CA125 level (Patient 005, ovarian cancer, end of Cycle 6, from 208 at start of study) was 140, the CT scan finding (Patient 006, cholangiocarcinoma) was “reduction in metastatic lung lesion and lymph node from baseline” and the Disease response duration [3] was 3 months. For the same substance, the “Response to RECIST” value [3] was “Stable Disease”, the CA19.9 (Patient 006, cholangiocarcinoma, after two doses, from 125,002) was 59,285 and the Disease response duration (Patient 007, colorectal cancer) was 3 months. The “Response to RECIST” value (Patient 007, colorectal cancer, 375 mg/m^2 twice weekly, then 500 mg/m^2 weekly) was “Stable Disease”, the CEA (Patient 007, colorectal cancer, from 361) was 286 and the CA19.9 (Patient 007, colorectal cancer, from 3,151) was 2,957. The Disease response duration [4] was 3 months, the “Response to RECIST” value [4] was “Stable Disease” and the Symptomatic benefit (Patient 008, cancer of unknown primary, Cycle 1) was “symptomatic relief on treatment and a general improvement in mood and wellbeing”. For the same substance, the Disease response duration [5] was 9 months, the “Stable Disease maintained after stopping NUC-1031” value [5] was 3 months and the “Response to RECIST” value (Patient 010, endometrial cancer, 750 mg/m^2 weekly, then 500 mg/m^2) was “Stable Disease”. The CA125 (Patient 010, endometrial cancer, from 727) was 488, the Disease response duration (Patient 011, uterine carcinosarcoma) was 4 months and the “Reduction in tumour volume” value (Patient 011, uterine carcinosarcoma, 375 mg/m^2 twice weekly) was 26%. The “Response to RECIST” value (Patient 011, uterine carcinosarcoma, 375 mg/m^2 twice weekly, then 625 mg/m^2 weekly) was “Stable Disease”, the Disease response duration (Patient 012, cholangiocarcinoma) was 8 months and the “Response to RECIST” value (Patient 012, cholangiocarcinoma, 375 mg/m^2 twice weekly, then 625 mg/m^2 weekly) was “Stable Disease”. The Disease response duration (Patient 013, cervical cancer) was 9 months, the PFS (Patient 013, cervical cancer) was 11 months and the “Response to RECIST” value (Patient 013, cervical cancer, 750, then 625, then 500 mg/m^2 weekly) was “Partial Response”. For the same substance, the Symptomatic benefit (Patient 013, cervical cancer, lower pelvic pain) was “relief of this pain on treatment, with significant reduction of opioid usage”, the “Response to RECIST” value (Patient 014, mesothelioma, 750, then 625 mg/m^2 weekly) was “Progressive Disease” and the “Response to RECIST” value (Patient 015, cancer of unknown primary, 750, then 625, then 500 mg/m^2 weekly) was “Partial Response”. The “Reduction in tumour size” value (Patient 015, cancer of unknown primary, CT scan 9th January 2015) was roughly 58%, the Symptomatic benefit (Patient 015, cancer of unknown primary, following Cycle 1) was “the oedema and ascites had gone” and the Disease response duration [6] was no less than 20 months. The PFS [6] was no less than 24 months, the Disease response duration (Patient 017, lung cancer) was 3 months and the PFS (Patient 017, lung cancer) was 10 months. For the same substance, the Symptomatic benefit (Patient 017, lung cancer) was “improvement in hoarse voice and dysphagia”, the “Response to RECIST” value (Patient 017, lung cancer (adenocarcinoma), 750, then 625 mg/m^2 weekly) was “Partial Response” and the “Response to RECIST” value (Patient 018, lung cancer (squamous cell), 625 mg/m^2 weekly) was “Stable Disease”. For the same substance, the Disease response duration (Patient 018, lung cancer, 625 mg/m^2 weekly) was 4 months, the “Response duration according to GCIG criteria” value [7] was 9 months and the “Response duration according to RECIST” value [7] was 3 months. The Symptomatic benefit [7] was “significant reduction in abdominal ascites”, the Best overall response (Patient 021, fallopian tube cancer, 625 mg/m^2 weekly) was “Partial Response” and the “CA125 reduction from baseline” value (Patient 021, fallopian tube cancer, end of Cycle 6) was 91%. The CA125 (Patient 021, fallopian tube cancer, end of Cycle 6, baseline 372) was 35, the “Response to RECIST” value (Patient 024, cancer of unknown primary, 675 mg/m^2 weekly) was “Progressive Disease” and the Disease response duration [8] was 4 months. The “Response to RECIST” value [8] was “Stable Disease”, the Symptomatic benefit (Patient 026, colorectal cancer) was “Significant improvement in pain, with dramatic reduction in use of opioid analgesia” and the Disease response duration [9] was 4 months. For the same substance, the “Response to RECIST” value [9] was “Stable Disease”, the Disease response duration (Patient 027, ovarian cancer) was 8 months and the “Reduction in tumour volume” value (Patient 027, ovarian cancer) was 23%. The “Response to RECIST” value (Patient 027, ovarian cancer, 725, then 675, then 625 mg/m^2 weekly) was “Stable Disease”, the CA125 (Patient 027, ovarian cancer, end of Cycle 6, from 188 at baseline) was 99 and the Disease response duration [10] was 4 months. The “Response to RECIST” value [10] was “Stable Disease”, the Disease response duration [11] was 3 months and the “Response to RECIST” value [11] was “Stable Disease”. The “Response (end of Cycle 2 CT scan)” value (Patient 031, cholangiocarcinoma, 750 mg/m^2 weekly) was “Progressive Disease”, the Disease response duration [12] was 2 months and the “Response to RECIST” value [12] was “Stable Disease”. For the same substance, the Disease response duration [13] was 3 months, the “Response to RECIST” value [13] was “Stable Disease” and the Disease response duration (Patient 036, renal carcinoma) was 5 months. The “Response to RECIST” value (Patient 036, renal carcinoma, 825, then 750 mg/m^2 weekly) was “Stable Disease”, the “Reduction in tumour volume” value (Patient 036, renal carcinoma, end of Cycle 4 CT scan) was 7% and the Disease response duration (Patient 037, pancreatic cancer) was 1 month. For the same substance, the PFS (Patient 037, pancreatic cancer) was 4 months, the Symptomatic benefit (Patient 037, pancreatic cancer) was “Pain in abdomen and back had significantly improved” and the “Response to RECIST” value (Patient 037, pancreatic cancer, 1,000, then 900 mg/m^2 weekly) was “Partial Response”.
